Entries after “also recorded” stand apart in the source; their conditions may differ. Values belong to the molecule of their own block, whether it stands above or below them.
Experiments:
[1] = ROS scavenging activity, DCFDA assay, cell-free in vitro; conditions: SIN-1-induced oxidative stress
Method: (§1) ROS scavenging activity was determined according to the method reported by Ali et al. and Lebel and Bondy. Briefly, 2′,7′-Dichlorodihydrofluorescein-diacetate (DCFH-DA) (2.5 mM, Molecular Probes, Eugene, OR, USA) mixed with esterase (1.5 units/mL), was incubated at 37 °C for 30 min and placed on ice in the dark until immediately prior to the study. Phosphate buffer (50 mM) at pH 7.4 was used. To determine intracellular ROS scavenging activity, B16F10 cells (1 × 10^4/well) were seeded in black 96-well plates. After 24 h, the cells were incubated with DCFH-DA (20 µM) and SIN-1 ([…]) for 30 min to induce ROS generation. The fluorescence intensity of oxidized DCFH was measured using a fluorescent microplate reader at excitation and emission wavelengths of 485 and 530 nm, respectively (Tecan, Männedorf, Switzerland). Trolox was used as the positive control.
ROS may regulate melanogenesis in melanoma cells. The principle of the intracellular ROS assay is that DCF-DA spreads through the cell membrane and is enzymatically hydrolyzed to […] by esterase; DCFH then responses with ROS to yield DCF [56]. The ROS scavenging activity of compounds 1–3 was investigated in vitro by using fluorescence probes, (DCF-DA) for ROS. SIN-1 is used as an NO donor [57, 58]. […] . […] The importance of catechol moiety (3,4-dihydroxy group) for ROS scavenging activity was reported in previous studies in the literature.
Figure 5 Reactive oxygen species (ROS) scavenging activity of compound 2. The inhibitory effect of compound 2 on ROS production was evaluated. A DCFDA assay was performed to determine ROS levels. The ROS scavenger trolox was used as the positive control. The scavenging activity of compound 2 on oxidative stress induced by 10 µM SIN-1 was estimated in cell-free in vitro (A). B16F10 cells were pre-treated with compound 2 and trolox for 3 h and further treated with 10 µM SIN-1 (B).

B16F10 cells [2] = assay: Melanin contents in α-MSH and IBMX-induced B16F10 cells; conditions: α-MSH and IBMX 48 h, 5, 10 and 20 µM
Description: All results were standardized to the total protein concentration of the cell lysates using the bicinchoninic acid (BCA) reagent (Thermo Fisher Scientific, Waltham, MA, USA).

mushroom tyrosinase = mushroom tyrosinase (Agaricus bisporus, UniProt C7FF04); assay: Enzyme kinetic analysis of mushroom tyrosinase (Lineweaver–Burk and Dixon plots); assay type: biochemical; conditions: L-tyrosine substrate 0.5–4 mM
Method: Lineweaver–Burk and Dixon plots were used to calculate the inhibition mode and inhibition constant (Ki) against mushroom tyrosinase. Kinetic parameters for various concentrations of the L-tyrosine substrate (0.5–4 mM) and inhibitors (0.4, 2, and 10 µM for compound 1; and 2, 4, and 8 µM for compound 2; and 2.5, 5, and 10 µM for compound 3, respectively) were achieved.
To elucidate the type of enzymatic inhibition, a kinetic analysis was accomplished at several concentrations of the L-tyrosine substrate and inhibitors (1–3), according to the Lineweaver–Burk and Dixon plot methods (Table 3 and Figure 2). […] Furthermore, the Dixon plot is a graphical method [plot of 1/enzyme velocity (1/V) against inhibitor concentration (I)] used to determine the type of enzymatic inhibition and the dissociation or inhibition constant (Kic) for the enzyme-inhibitor complex.
Figure 2 Enzymatic kinetics study of compounds 1–3 against tyrosinase. Lineweaver–Burk plots for the inhibition of mushroom tyrosinase of compounds 1 (A), 2 (B), and 3 (C). Dixon plots for tyrosinase inhibition of compounds 1 (D), 2 (E), and 3 (F) using L-tyrosine as the substrate.

[3] = test system: tyrosinase, p-CREB, p-PKA, MITF, p-JNK, p-ERK, p-p38; assay: Western blot analysis of melanogenic signaling proteins in α-MSH- and IBMX-induced B16F10 cells; assay type: cell-based, mouse
Method: Lysed samples were boiled for 10 min with gel-loading buffer (0.125 M Tris-HCl, pH 6.8, 4% SDS, 10% 2-mercaptoethanol and 0.2% bromophenol blue) at a volume ratio of 1:1. Total protein equivalents were separated with SDS-PAGE using 9–10% acrylamide gels and then transferred onto polyvinylidene fluoride membranes (Millipore, Burlington, MA, USA) at 25 V for 10 min in a semi-dry transfer system (Bio-Rad Laboratories, Hercules, CA, USA). The membranes were immediately placed in blocking buffer (5% non-fat milk) in 10 mM Tris (pH 7.5), 100 mM NaCl, and 0.1% Tween-20. The blots were blocked at room temperature for 1 h. The membranes were incubated with appropriate specific primary antibodies at 4 °C overnight and then treated with horseradish peroxidase-conjugated anti-mouse, anti-rabbit or anti-goat antibodies (1:5000) at 25 °C for 1 h (Santa Cruz Biotechnology, Dallas, TX, USA). Protein bands were visualized using the SuperSignal® West Pico Chemiluminescent Substrate kit (Advansta, San Jose, CA, USA) and Davinch-Chemi^TM (Davinch-K, Seoul, Korea).
It is important to determine whether the inhibition of melanin synthesis by compound 2 is related to melanogenesis signaling and gene expression. […] MITF, a leucine zipper transcription factor, activates the expression of multiple genes encoding enzymes involved in the conversion of tyrosine into melanin, resulting in increased levels of these melanin-producing proteins. […] The skin is site of oxidative stress due to exposure to daylight and environmental oxidizing pollutants. It is known that ROS stimulates α-MSH- and IBMX-induced production in melanoma cells leading to melanogenesis by upregulating MITF, a transcription factor that induces tyrosinase gene expression. […] However, the levels of phosphorylated p38 were not affected by treatment with compound 2. In our study, both p-JNK and p-ERK were decreased by compound 2.
(§2) Figure 7 Effects of compound 2 on melanogenic proteins and mRNA levels in α-MSH- and IBMX-induced B16F10 cells. […] The expression levels of tyrosinase, p-CREB, p-PKA, p-JNK, p-ERK, p-p38, and β-actin were determined with Western blotting in the cytosolic fraction. β-actin was used as the loading control (A,B,D,E). The expression levels of MITF and TFIIB were determined with Western blotting in the nuclear fraction. TFIIB was used as the loading control (C). Relative mRNA levels of the melanogenic genes MITF, Tyrosinase, Trp1, and Trp2 in the cells were quantified using real-time qPCR and normalized to the GAPDH mRNA level (F).

[4] = test system: MITF, tyrosinase, TRP1, TRP2 mRNA; assay: Real-time qPCR of melanogenic genes in α-MSH- and IBMX-induced B16F10 cells; assay type: cell-based, mouse; conditions: normalized to GAPDH
Method: RNA from cell samples was purified using the RiboEx Total RNA solution (GeneAll Biotechnology, Seoul, Korea) according to the manufacturer’s instructions. Total RNA (2 µg) treated with ribonuclease (RNase) free deoxyribonuclease (DNase) was reverse-transcribed using Hyperscript^TM One-Step RT-PCR (GeneAll Biotechnology, Seoul, Korea). Real-time qPCR was performed using the SensiFAST^TM SYBR® No-ROX dye (Bioline, London, UK.) and a CFX Connect System (Bio-Rad Laboratories, Hercules, CA, USA). Relative gene expression was calculated with the standard curve method using GAPDH as the internal control. Ct values were obtained with qPCR. Three independent tests were performed.
The effects of compound 2 on the expression of mRNA melanogenic factors were evaluated in α-MSH- and IBMX-induced B16F10 cells. […] The mRNA levels of tyrosinase, TRP1, TRP2, and MITF were quantified with real-time qPCR (Figure 7F).
as §2, with “TFIIB was used as the loading control (C). Relative mRNA levels of the melanogenic genes MITF, Tyrosinase, Trp1, and Trp2 in the cells were quantified using real-time qPCR and normalized to the GAPDH mRNA level (F).” left out

B16F10 cells [5] = assay: Intracellular ROS levels in SIN-1-treated B16F10 cells; assay type: cell-based, mouse; conditions: pre-treated 3 h, then SIN-1
Method: as §1
ROS may regulate melanogenesis in melanoma cells. The principle of the intracellular ROS assay is that DCF-DA spreads through the cell membrane and is enzymatically hydrolyzed to […] by esterase; DCFH then responses with ROS to yield DCF [56]. The ROS scavenging activity of compounds 1–3 was investigated in vitro by using fluorescence probes, (DCF-DA) for ROS. SIN-1 is used as an NO donor [57, 58]. […]
Figure 5 Reactive oxygen species (ROS) scavenging activity of compound 2. The inhibitory effect of compound 2 on ROS production was evaluated. […]

B16F10 cells [6] = assay: Cell viability, EZ-Cytox assay; assay type: cell-based, mouse; conditions: 5–200 µM, 48 h, vs vehicle control
Method: The mouse melanoma cell line B16F10 was acquired from American Type Culture Collection (ATCC®; CCL-6475™) (Manassas, VA, USA) and cultured in DMEM, supplemented with 10% fetal bovine serum (FBS) and 1% penicillin–streptomycin, at 37 °C in a humidified 5% CO2 atmosphere. Cell viability assays were performed with minor modifications, as previously reported. Cell viability was evaluated using the EZ-Cytox assay kit (DaeilLab, Seoul, Korea). The compounds were dissolved in DMSO for the in vitro experiments.
The EZ-Cytox assay was used to estimate cell viability. […] Consequently, 20 µM sample concentrations of compounds 1–3 and trolox were used for further experiments.
Figure 4 Effects of compounds 1–3 and trolox on the viability of B16F10 cells. Cells were incubated with different concentrations (5–200 µM) of compound 1 (A), 2 (B), 3 (C), and trolox (D) for 48 h, and cell viability was determined using EZ-Cytox assay. *** p < 0.001 vs. DMSO-treated.

[7] = cytosolic fraction, 5, 10 and 20 µM

Chain of mushroom tyrosinase (C7FF04 1-392): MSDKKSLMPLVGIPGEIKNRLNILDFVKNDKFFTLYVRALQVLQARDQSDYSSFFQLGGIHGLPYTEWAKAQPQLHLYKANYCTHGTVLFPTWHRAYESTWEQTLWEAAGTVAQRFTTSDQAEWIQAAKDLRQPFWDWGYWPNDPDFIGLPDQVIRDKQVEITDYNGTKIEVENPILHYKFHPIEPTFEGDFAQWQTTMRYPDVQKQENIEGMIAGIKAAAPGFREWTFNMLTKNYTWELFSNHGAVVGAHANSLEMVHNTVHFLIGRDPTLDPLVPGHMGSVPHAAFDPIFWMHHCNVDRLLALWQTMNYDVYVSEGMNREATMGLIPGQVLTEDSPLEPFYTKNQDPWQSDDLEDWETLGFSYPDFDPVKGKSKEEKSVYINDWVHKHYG

melting point: 244.2 to 245.2 °C
SMILES: O=c1/c(=C/c2ccccc2O)sc2nc3ccccc3n12 [Compound 10]

melting point: 215.1 °C
SMILES: COc1cc(/C=c2\sc3nc4ccccc4n3c2=O)cc(OC)c1OC [Compound 11]

melting point: 261.9 to 269.1 °C
SMILES: COc1cc(/C=c2\sc3nc4ccccc4n3c2=O)cc(OC)c1O [Compound 12]

melting point: 293.7 to 297 °C
SMILES: O=c1/c(=C/c2ccc(O)c(Br)c2)sc2nc3ccccc3n12 [Compound 13]

IC50 [1]: 13.2 ± 0.73 µM
SMILES: Cc1c(C)c2c(c(C)c1O)CCC(C)(C(=O)O)O2 (stereo not shown) [Trolox, reference compound]
cell viability (B16F10 cells [6]): did not significantly affect cell viability at concentrations up to 20 µM

The remaining lines, values behind:

SMILES: O=c1/c(=C/c2ccc(O)cc2)sc2nc3ccccc3n12 [Compound 1]
IC50 [1]: ≥ 50 µM | melting point: ≥ 300 °C | effect on melanin contents (B16F10 cells [2]): reduced the melanin content at 20 µM | Inhibition Type (mushroom tyrosinase): Competitive

SMILES: O=c1/c(=C/c2ccc(O)c(O)c2)sc2nc3ccccc3n12 [Compound 2]
expression of tyrosinase, phosphorylated CREB and PKA [3, 7]: decreased their expression on these proteins in a dose-dependent manner | levels of phosphorylated JNK and ERK [3, 7]: decreased the levels of phosphorylated JNK and ERK in a concentration-dependent manner | levels of phosphorylated p38 [3, 7]: not affected | MITF levels ([3]; nuclear fraction, 5, 10 and 20 µM): significantly suppressed MITF levels | mRNA levels of tyrosinase, TRP1, TRP2 and MITF [4]: significantly inhibited the expression | IC50 [1]: 2.36 ± 0.48 µM | melting point: ≥ 300 °C | Inhibition Type (mushroom tyrosinase): Competitive | SIN-1-induced ROS generation in cells (B16F10 cells [5]): dose-dependently scavenged ROS; also recorded: reduced SIN-1-induced ROS generation in a dose-dependent manner

SMILES: O=c1/c(=C/c2ccc(O)cc2O)sc2nc3ccccc3n12 [Compound 3]
IC50 [1]: ≥ 50 µM | melting point: 263.7 to 268.3 °C | Inhibition Type (mushroom tyrosinase): Competitive

SMILES: COc1cc(/C=c2\sc3nc4ccccc4n3c2=O)ccc1O [Compound 4]
melting point: 262.3 to 264 °C

SMILES: CCOc1cc(/C=c2\sc3nc4ccccc4n3c2=O)ccc1O [Compound 5]
melting point: 210.7 °C

SMILES: COc1ccc(/C=c2\sc3nc4ccccc4n3c2=O)cc1O [Compound 6]
melting point: 249.6 to 252.1 °C

SMILES: COc1ccc(/C=c2\sc3nc4ccccc4n3c2=O)cc1 [Compound 7]
melting point: 239.5 to 241.8 °C

SMILES: COc1ccc(/C=c2\sc3nc4ccccc4n3c2=O)cc1OC [Compound 8]
melting point: 236.7 to 236.9 °C

SMILES: COc1ccc(/C=c2\sc3nc4ccccc4n3c2=O)c(OC)c1 [Compound 9]
melting point: 250.1 to 257.5 °C

— PMC8301170, “New Benzimidazothiazolone Derivatives as Tyrosinase Inhibitors with Potential Anti-Melanogenesis and Reactive Oxygen Species Scavenging Activities” (Antioxidants, 2021)
